Test results from patent US4564619A, “Carbostyril derivative” (Otsuka Pharmaceutical Co., Ltd., priority 1982, dated 1986).

Tests used:
[1] = system: collagen-induced aggregation in rabbit platelets; assay: Inhibition of collagen-induced platelet aggregation in rabbit platelet rich plasma; type: cell-based; conditions: Oryctolagus cuniculus, read-out: Inhibition rate of collagen-induced aggregation; for inhibition at 100 µM (stock): Concentration of the test compound solution 10^-4 mole; for inhibition at 10 µM (stock): Concentration of the test compound solution 10^-5 mole
Method in brief: (§1)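 Citrated rabbit PRP adjusted to 600,000 platelets/μl with PPP, preincubated with test compound 1 min at 37° C, then challenged with ADP (solution prepared at 7.5×10^-5 M) or collagen (solution at 200 μg/ml). Aggregation followed by light transmittance; % inhibition relative to control aggregation rate.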

[2] = system: ADP-induced aggregation in rabbit platelets; assay: Inhibition of ADP-induced platelet aggregation in rabbit platelet rich plasma; type: cell-based; conditions: Oryctolagus cuniculus, read-out: Inhibition rate of ADP-induced aggregation; for inhibition at 100 µM (stock): Concentration of the test compound solution 10^-4 mole; for inhibition at 10 µM (stock): Concentration of the test compound solution 10^-5 mole
Method in brief: as §1

[3] = system: coronary artery; assay: Increased amount of the blood flow in coronary artery, intravenous administration, anesthetized dog; type: in vivo
Protocol: The change of blood flow in coronary artery and the change of blood pressure were measured by a method according to Yakura et al., [Japan Journal of Pharmacology, Vol. 57, pages 380-391 (1961)] and according to Taira, et al. [Clin. Exp. Pharmacol. Physiol., Vol. 6, pages 301-316, (1976)].
An adult bastard dog of either sex weighing 8-13 kg was anesthetized with sodium pentobarbital at the rate of 30 mg/kg by intraveneous administration, then the dog was fixed in supination and was theracotomized under a condition of forced breathing. After another intraveneous administration of sodium heparin at the rate of 500 U/kg, 100 U/kg per hour, the dog was subjected to the following experiments.
(2) Intraveneous administration
Morawitz's cannula was cannulated to the coronary sinus venosus through the auricula dextra cordis, and the blood in vein was circulated to the right carotid. The blood flow was measured by an electromagnetic blood flow meter equipped with a blood flow observation probe in the extracorporeal circulation path of the vein. The systolic force was measured by a systolometer (pick-up) placed at the left ventricle of heart, the blood pressure was measured from the femoral artery, and the heart rate was measured from the pulse. A compound to be tested was administered through the cannula being cannulated in femoral vein. The increased amount of the blood flow in coronary artery after the administration of the test compound is shown in Table 4, also the change of blood pressure is shown in Table 5.

[4] = Change of blood pressure, intravenous administration, anesthetized dog; type: in vivo; parameters: unit not given here; conditions: femoral artery
Method in brief: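 Pentobarbital-anesthetized (30 mg/kg i.v.), heparinized, thoracotomized dogs of either sex, 8-13 kg, under forced breathing; compound given via femoral vein. Coronary sinus outflow measured by electromagnetic flowmeter in an extracorporeal venous circuit to the carotid; blood pressure recorded from femoral artery.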

SMILES | inhibition at 100 µM (stock) [1] [%] | inhibition at 10 µM (stock) [1] [%] | inhibition at 100 µM (stock) [2] [%] | inhibition at 10 µM (stock) [2] [%] | Increased amount of the blood flow in coronary artery ([3]; 3 micrograms/kg) [mL/min] | Increased amount of the blood flow in coronary artery ([3]; 10 micrograms/kg) [mL/min] | Increased amount of the blood flow in coronary artery ([3]; 30 micrograms/kg) [mL/min] | Increased amount of the blood flow in coronary artery ([3]; 100 micrograms/kg) [mL/min] | Increased amount of the blood flow in coronary artery ([3]; 300 micrograms/kg) [mL/min] | Change of blood pressure ([4]; 3 micrograms/kg) | Change of blood pressure ([4]; 10 micrograms/kg) | Change of blood pressure ([4]; 30 micrograms/kg) | Change of blood pressure ([4]; 100 micrograms/kg) | Change of blood pressure ([4]; 300 micrograms/kg) | Increased amount of the blood flow in coronary artery ([3]; 1000 micrograms/kg) [mL/min]
COC(=O)C1=C(C)NC(C)=C(C(=O)OCCCOc2cccc3c2NC(=O)CC3)C1c1cccc([N+](=O)[O-])c1 (centres unmarked) [Compound 9, 8-{3-[2,6-Dimethyl-5-methoxycarbonyl-4-(3-nitrophenyl)-1,4-dihydropyridin-3-carboxy]-propoxy}-3,4-dihydrocarbostyril] | 16 | 2 | 12 | 7 | 4 | 17 | 47 | 66 | 81 | -14 | -28 | -36 | -41 | -36 | –
COC(=O)C1=C(C)NC(C)=C(C(=O)OCCOc2ccc3c(c2)CCC(=O)N3)C1c1cccc([N+](=O)[O-])c1 (centres unmarked) [Compound 3, 6-{2-[2,6-Dimethyl-5-methoxycarbonyl-4-(3-nitrophenyl)-1,4-dihydropyridin-3-carboxy]-ethoxy}-3,4-dihydrocarbostyril] | 100 | 97 | 100 | 27 | 2 | 1 | 3 | 14 | 38 | – | -1 | -4 | -18 | -34 | –
COC(=O)C1=C(C)NC(C)=C(C(=O)OCCCOc2ccc(O)c3c2CCC(=O)N3)C1c1cccc([N+](=O)[O-])c1 (centres unmarked) [Compound 7, 5-{3-[2,6-Dimethyl-5-methoxycarbonyl-4-(3-nitrophenyl)-1,4-dihydropyridin-3-carboxy]-propoxy}-8-hydroxy-3,4-dihydrocarbostyril] | 15 | 3 | 14 | 3 | – | – | 1 | 15 | 47 | – | -2 | -4 | -9 | -14 | –
C=CCOc1ccc(OCCCOC(=O)C2=C(C)NC(C)=C(C(=O)OC)C2c2cccc([N+](=O)[O-])c2)c2c1NC(=O)CC2 (centres unmarked) [Compound 1, 5-{3-[2,6-Dimethyl-5-methoxycarbonyl-4-(3-nitrophenyl)-1,4-dihydropyridin-3-carboxy]-propoxy}-8-propenyloxy-3,4-dihydrocarbostyril] | 51 | 15 | 19 | 1 | 4 | 34 | 63 | 62 | 42 | -6 | -17 | -36 | -42 | -46 | –
COC(=O)C1=C(C)NC(C)=C(C(=O)OCCOc2cccc3c2CCC(=O)N3)C1c1cccc([N+](=O)[O-])c1 (centres unmarked) [Compound 2, 5-{2-[2,6-Dimethyl-5-methoxycarbonyl-4-(3-nitrophenyl)-1,4-dihydropyridin-3-carboxy]-ethoxy}-3,4-dihydrocarbostyril] | 79 | 17 | 28 | 1 | – | 3 | 13 | 38 | 52 | – | -2 | -6 | -21 | -34 | –
COC(=O)C1=C(C)NC(C)=C(C(=O)OCCN(C(=O)CCCOc2ccc3c(c2)CCC(=O)N3)C2CCCCC2)C1c1ccccc1[N+](=O)[O-] (centres unmarked) [Compound 32, N--{2-[1,4-Dihydro-2,6-dimethyl-5-methoxycarbonyl-4-(2-nitrophenyl)pyridin-3-carboxy]ethyl}-N--cyclohexyl-4-(3,4-dihydro-6-carbostyriloxy)-butyramide] | 100 | 34 | 98 | 25 | – | – | – | 16 | 55 | – | -1 | -6 | -8 | -19 | 97
COC(=O)C1=C(C)NC(C)=C(C(=O)OCCN(C(=O)CCCOc2ccc3[nH]c(=O)ccc3c2)C2CCCCC2)C1c1cccc([N+](=O)[O-])c1 (centres unmarked) [Compound 31, N--{2-[1,4-Dihydro-2,6-dimethyl-5-methoxycarbonyl-4-(3-nitrophenyl)pyridin-3-carboxy]ethyl}-N--cyclohexyl-4-(6-carbostyriloxy)butyramide] | 100 | 100 | 100 | 84 | – | – | – | 6 | 32 | – | -1 | -4 | -8 | -23 | 61
